From US20250250230A1, “HETEROCYCLIC COMPOUND” (TAKEDA PHARMACEUTICAL COMPANY LIMITED, priority 2022, published 2025)

The compounds below were run against T1, human orexin type 2 receptor (Homo sapiens, UniProt O43614) (assay: Measurement of orexin type 2 receptor agonist activity (calcium fluorescence, Fluo-4 AM, FDSS)). Conditions: test compound 3 μM; CHO cells expressing human OX2 receptor; DMSO = 0%, orexin A (human) = 100%.
T1 construct: expressed in transfected cells
T1 sequence (O43614 1-444): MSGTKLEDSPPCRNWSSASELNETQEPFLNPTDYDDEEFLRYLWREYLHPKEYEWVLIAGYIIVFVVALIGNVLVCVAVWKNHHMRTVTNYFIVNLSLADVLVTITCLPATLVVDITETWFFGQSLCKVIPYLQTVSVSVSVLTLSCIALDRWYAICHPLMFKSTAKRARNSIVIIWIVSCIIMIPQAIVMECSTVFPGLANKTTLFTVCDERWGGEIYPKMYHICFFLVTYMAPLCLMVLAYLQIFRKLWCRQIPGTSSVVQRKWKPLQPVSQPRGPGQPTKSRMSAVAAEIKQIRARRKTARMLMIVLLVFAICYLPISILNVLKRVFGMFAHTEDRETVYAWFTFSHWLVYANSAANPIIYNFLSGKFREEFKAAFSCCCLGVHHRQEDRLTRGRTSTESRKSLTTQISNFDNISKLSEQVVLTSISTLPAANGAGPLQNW
Assay type: cell-based
Method in brief: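 CHO-K1 cells stably expressing human OX2R were loaded with Fluo-4 AM (30 min 37 °C, 30 min RT) in HEPES-buffered HBSS with 0.1% BSA and probenecid. Calcium fluorescence was followed on FDSS for 2 min after compound addition; activity normalised to DMSO (0%) and 10 nM orexin A (100%).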

Compound	OX2R agonist activity (3 μM, %)
CS(=O)(=O)NC(C1CC1)[C@@H]1CCN1C(=O)[C@@H]1C[C@@]1(F)c1ccccc1-c1c(F)cccc1F (stereo partly drawn) [Example 394, N-[(R)-cyclopropyl{(2S)-1-[(1S,2S)-2-(2′,6′-difluoro[1,1′-biphenyl]-2-yl)-2-fluorocyclopropane-1-carbonyl]azetidin-2-yl}methyl]methanesulfonamide, or N-[(S)-cyclopropyl{(2S)-1-[(1S,2S)-2-(2′,6′-difluoro[1,1′-biphenyl]-2-yl)-2-fluorocyclopropane-1-carbonyl]azetidin-2-yl}methyl]methanesulfonamide]	106%
C[C@@H]1CN(C(=O)C2CC2(F)c2c(F)cccc2-c2c(F)cccc2F)[C@@H]1CNS(C)(=O)=O (stereo partly drawn) [Example 395, N-({(2S,3R)-1-[(1R,2R)-2-fluoro-2-(2′,3,6′-trifluoro[1,1′-biphenyl]-2-yl)cyclopropane-1-carbonyl]-3-methylazetidin-2-yl}methyl)methanesulfonamide, or N-({(2S,3R)-1-[(1S,2S)-2-fluoro-2-(2′,3,6′-trifluoro[1,1′-biphenyl]-2-yl)cyclopropane-1-carbonyl]-3-methylazetidin-2-yl}methyl)methanesulfonamide]	99%
Cc1ccc(C2(F)CC2C(=O)N2C[C@@H](C)[C@H]2CNS(C)(=O)=O)c(-c2c(F)cccc2F)c1 (stereo partly drawn) [Example 396, N-({(2S,3R)-1-[(1R,2R)-2-(2′,6′-difluoro-5-methyl[1,1′-biphenyl]-2-yl)-2-fluorocyclopropane-1-carbonyl]-3-methylazetidin-2-yl}methyl)methanesulfonamide, or N-({(2S,3R)-1-[(1S,2S)-2-(2′,6′-difluoro-5-methyl[1,1′-biphenyl]-2-yl)-2-fluorocyclopropane-1-carbonyl]-3-methylazetidin-2-yl}methyl)methanesulfonamide]	104%
COC[C@@H]1CN(C(=O)[C@@H]2C[C@@]2(F)c2ccccc2-c2c(F)cccc2F)[C@@H]1CNS(C)(=O)=O [Example 397, N-{[(2S,3R)-1-[(1S,2S)-2-(2′,6′-difluoro[1,1′-biphenyl]-2-yl)-2-fluorocyclopropane-1-carbonyl]-3-(methoxymethyl)azetidin-2-yl]methyl}methanesulfonamide]	84%
CS(=O)(=O)NC[C@@H]1[C@H](CF)CN1C(=O)[C@@H]1C[C@@]1(F)c1ccccc1-c1c(F)cccc1F [Example 398, N-{[(2S,3R)-1-[(1S,2S)-2-(2′,6′-difluoro[1,1′-biphenyl]-2-yl)-2-fluorocyclopropane-1-carbonyl]-3-(fluoromethyl)azetidin-2-yl]methyl}methanesulfonamide]	97%
CS(=O)(=O)NC[C@H]1[C@H](CF)CN1C(=O)[C@@H]1C[C@@]1(F)c1ccccc1-c1c(F)cccc1F [Example 400, N-{[(2R,3R)-1-[(1S,2S)-2-(2′,6′-difluoro[1,1′-biphenyl]-2-yl)-2-fluorocyclopropane-1-carbonyl]-3-(fluoromethyl)azetidin-2-yl]methyl}methanesulfonamide]	99%
CC(NS(C)(=O)=O)[C@@H]1[C@H](C)CN1C(=O)[C@@H]1C[C@@]1(F)c1ccccc1-c1c(F)cccc1F (stereo partly drawn) [Example 401, N-[(1R)-1-{(2S,3R)-1-[(1S,2S)-2-(2′,6′-difluoro[1,1′-biphenyl]-2-yl)-2-fluorocyclopropane-1-carbonyl]-3-methylazetidin-2-yl}ethyl]methanesulfonamide, or N-[(1S)-1-{(2S,3R)-1-[(1S,2S)-2-(2′,6′-difluoro[1,1′-biphenyl]-2-yl)-2-fluorocyclopropane-1-carbonyl]-3-methylazetidin-2-yl}ethyl]methanesulfonamide]	79%
CS(=O)(=O)NC[C@@H]1CCN1C(=O)[C@@H]1C[C@H]1c1ccccc1-c1c(F)cc(F)cc1F [Example 403, N-({(2S)-1-[(1R,2R)-2-(2′,4′,6′-trifluoro[1,1′-biphenyl]-2-yl)cyclopropane-1-carbonyl]azetidin-2-yl}methyl)methanesulfonamide]	83%
